Measured values reported in ChEMBL document CHEMBL1132857, “Synthesis and binding studies of some epibatidine analogues” (Bioorg Med Chem Lett, 2000).

How the values were obtained:
[1] = Inhibition of binding of [3H]nicotine to neural nicotinic cholinergic receptor in rat brain membranes at 10e-5 M of compound concentration; type: cell membranes
[2] = target: T1, Muscarinic acetylcholine receptor M2 (Rattus norvegicus, UniProt P10980)
T1 sequence (P10980 whole entry): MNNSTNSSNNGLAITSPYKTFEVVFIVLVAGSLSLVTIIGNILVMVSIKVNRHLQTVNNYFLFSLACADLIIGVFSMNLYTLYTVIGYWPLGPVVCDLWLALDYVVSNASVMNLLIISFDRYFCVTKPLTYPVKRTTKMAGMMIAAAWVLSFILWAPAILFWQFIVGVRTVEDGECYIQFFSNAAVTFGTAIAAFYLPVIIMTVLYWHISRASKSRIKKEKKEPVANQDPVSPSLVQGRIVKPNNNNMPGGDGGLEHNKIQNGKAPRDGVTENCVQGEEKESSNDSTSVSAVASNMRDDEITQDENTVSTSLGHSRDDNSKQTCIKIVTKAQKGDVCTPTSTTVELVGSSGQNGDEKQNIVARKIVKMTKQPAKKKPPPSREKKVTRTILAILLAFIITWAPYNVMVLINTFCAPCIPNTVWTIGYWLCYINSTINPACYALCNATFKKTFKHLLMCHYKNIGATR

[3] = target: T2, Muscarinic acetylcholine receptor M1 (Rattus norvegicus, UniProt P08482); test: Inhibition of binding of [3H]quinuclidinyl benzilate to Muscarinic acetylcholine receptor M1 in rat brain cortex at 10e-5 M of compound concentration; Residual radioligand binding higher than 80%; type: tissue-based
T2 sequence (P08482 whole entry): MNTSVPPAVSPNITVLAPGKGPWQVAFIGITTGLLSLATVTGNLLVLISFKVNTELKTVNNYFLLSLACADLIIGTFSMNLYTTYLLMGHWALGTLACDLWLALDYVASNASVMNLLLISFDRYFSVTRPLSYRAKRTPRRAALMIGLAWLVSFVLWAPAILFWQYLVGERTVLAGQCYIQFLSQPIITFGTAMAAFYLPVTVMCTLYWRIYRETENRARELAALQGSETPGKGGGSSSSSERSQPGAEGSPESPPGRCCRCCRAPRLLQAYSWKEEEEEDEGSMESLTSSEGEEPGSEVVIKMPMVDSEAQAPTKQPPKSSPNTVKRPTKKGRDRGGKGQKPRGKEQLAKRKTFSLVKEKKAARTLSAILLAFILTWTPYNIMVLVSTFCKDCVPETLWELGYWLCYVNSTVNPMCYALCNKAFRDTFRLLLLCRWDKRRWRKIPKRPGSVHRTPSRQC

[4] = target: T3, Muscarinic acetylcholine receptor M1 (Rattus norvegicus) (UniProt P08482); test: Inhibition of binding of [3H]quinuclidinyl benzilate to Muscarinic acetylcholine receptor M1 in rat brain cortex at 10e-5 M of compound concentration; Less active; type: tissue-based
T3 sequence (whole entry): T2 sequence (P08482 whole entry)

[5] = target: T4, Muscarinic acetylcholine receptor M2 (Rattus norvegicus) (UniProt P10980); test: Inhibition of binding of [3H]quinuclidinyl benzilate to Muscarinic acetylcholine receptor M2 in rat heart atria at 10e-5 M of compound concentration; Less active
T4 sequence (whole entry): T1 sequence (P10980 whole entry)

[6] = species on record: Rattus norvegicus; test: Inhibition of binding of [3H]-nicotine to neural nicotinic cholinergic receptor in rat brain membranes at 10e-5 M of compound concentration; Less active; type: cell membranes
[7] = target: T5, 5-hydroxytryptamine receptor 1A (Rattus norvegicus) (UniProt P19327); test: Inhibition of [3H]8-hydroxy-2-dipropylamino-1,2,3,4-tetrahydronaphthalene binding to 5-hydroxytryptamine 1A receptor in hippocampus region of rat brain; Less active; type: tissue-based
T5 sequence (whole entry): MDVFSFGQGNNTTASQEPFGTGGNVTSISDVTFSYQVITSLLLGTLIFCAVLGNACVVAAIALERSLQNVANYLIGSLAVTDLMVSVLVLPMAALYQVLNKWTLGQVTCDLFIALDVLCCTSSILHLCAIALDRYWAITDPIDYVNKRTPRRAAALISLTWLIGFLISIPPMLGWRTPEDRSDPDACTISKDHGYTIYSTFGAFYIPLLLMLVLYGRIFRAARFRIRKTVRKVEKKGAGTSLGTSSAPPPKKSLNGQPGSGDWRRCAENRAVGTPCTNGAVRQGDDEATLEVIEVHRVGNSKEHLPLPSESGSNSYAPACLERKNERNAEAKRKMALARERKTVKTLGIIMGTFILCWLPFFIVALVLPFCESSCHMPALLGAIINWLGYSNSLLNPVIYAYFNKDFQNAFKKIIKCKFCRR

[8] = target: 5-hydroxytryptamine receptor 1B (Rattus norvegicus) (UniProt P28564); test: Inhibition of [3H]5-HT binding to 5-hydroxytryptamine 1B receptor in rat striatum; Less active; type: tissue-based
[9] = species on record: Rattus norvegicus; test: Inhibition of binding of [3H]nicotine to neural nicotinic cholinergic receptor in rat brain membranes at 10e-5 M of compound concentration; Less active; type: cell membranes
[10] = target: T1, Muscarinic acetylcholine receptor M2; test: Inhibition of binding of [3H]quinuclidinyl benzilate to Muscarinic acetylcholine receptor M2 in rat heart atria at 10e-5 M of compound concentration
[11] = target: T2, Muscarinic acetylcholine receptor M1; test: Inhibition of binding of [3H]quinuclidinyl benzilate to Muscarinic acetylcholine receptor M1 in rat brain cortex at 10e-5 M of compound concentration; type: tissue-based
[12] = target: T2, Muscarinic acetylcholine receptor M1; type: tissue-based, Brain
[13] = target: T4, Muscarinic acetylcholine receptor M2 (Rattus norvegicus); test: Inhibition of binding of [3H]quinuclidinyl benzilate to Muscarinic acetylcholine receptor M2 in rat heart atria at 10e-5 M of compound concentration. Less active

5-hydroxytryptamine receptor 1B (Rattus norvegicus), sequence (P28564 whole entry): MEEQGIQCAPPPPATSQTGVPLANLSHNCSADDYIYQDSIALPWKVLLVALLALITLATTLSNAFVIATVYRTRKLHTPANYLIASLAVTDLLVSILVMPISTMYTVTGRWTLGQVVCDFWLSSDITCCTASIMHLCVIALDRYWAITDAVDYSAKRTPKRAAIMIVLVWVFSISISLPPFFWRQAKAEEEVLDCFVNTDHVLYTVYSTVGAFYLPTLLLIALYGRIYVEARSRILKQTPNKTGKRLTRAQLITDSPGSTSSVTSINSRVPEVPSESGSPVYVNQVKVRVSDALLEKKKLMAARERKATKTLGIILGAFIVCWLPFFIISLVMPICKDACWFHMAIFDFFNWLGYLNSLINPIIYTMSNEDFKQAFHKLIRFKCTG

Row | Structure (SMILES) | IC50 [1] [µM] | Activity [4] | Activity [5] | Activity [6] | Activity [7] | Activity [8] | further results
1 | Cl.Clc1cccc(C2=CC3CCC(C2)N3)n1 (stereo unspecified) | 0.212 | – | – | – | – | – | IC50 [2]: Not Active; IC50 [3]: Not Active
2 | CN1C2CCC1CC(O)(c1ccc(Cl)nc1)C2 (stereo unspecified) | – | Weak activity | Weak activity | Weak activity | Weak activity | Weak activity | –
3 | CCOC(=O)N1C2CCC1CC(O)(c1ccc(Cl)cn1)C2 (stereo unspecified) | – | Weak activity | Weak activity | – | Weak activity | Weak activity | Activity [9]: Weak activity
4 | Clc1ccc(C2=CC3CCC(C2)N3)cn1.O=C(O)/C=C\C(=O)O (stereo unspecified) | 0.0017 | – | – | – | – | – | IC50 [2]: Not Active; IC50 [3]: Not Active
5 | CN1C2C=C(c3ccc(Cl)nc3)CC1CC2 (stereo unspecified) | 0.0018 | – | – | – | – | – | IC50 [10]: 4.18 µM; IC50 [11]: 2.14 µM
6 | CN1C2C=C(c3ccc(Cl)cn3)CC1CC2 (stereo unspecified) | – | Weak activity | Weak activity | Weak activity | Weak activity | Weak activity | –
7 | CCOC(=O)N1C2CCC1CC(O)(c1cccc(Cl)n1)C2 (stereo unspecified) | – | Weak activity | Weak activity | – | Weak activity | Weak activity | Activity [9]: Weak activity
8 | CN1C2CCC1CC(O)(c1cccc(Cl)n1)C2 (stereo unspecified) | – | Weak activity | Weak activity | Weak activity | Weak activity | Weak activity | –
9 | CN1C2C=C(c3cccc(Cl)n3)CC1CC2.O=C(O)/C=C\C(=O)O (stereo unspecified) | 0.264 | – | – | – | – | – | IC50 [11]: 1.85 µM; IC50 [2]: Not Active
10 | CCOC(=O)OC1(c2ccc(Cl)nc2)CCN(C)CC1 | – | Weak activity | Weak activity | Weak activity | Weak activity | Weak activity | –
11 | CN1CC=C(c2ccc(Cl)nc2)CC1.Cl | 0.0125 | – | – | – | – | – | IC50 [2]: Not Active; IC50 [12]: Not Active
12 | C[n+]1cccc(-c2ccc(Cl)nc2)c1.[I-] | 0.077 | – | – | – | – | – | IC50 [2]: Not Active; IC50 [12]: Not Active
13 | Clc1ccc(-c2cccnc2)cn1 | – | Weak activity | Weak activity | – | Weak activity | Weak activity | Activity [9]: Weak activity
14 | CN1CCC=C(c2ccc(Cl)nc2)C1.O=C(O)/C=C\C(=O)O | 0.0022 | – | – | – | – | – | IC50 [10]: 3.51 µM; IC50 [12]: Not Active
15 | CN1CCC(O)(c2ccc(Cl)nc2)CC1 | – | Weak activity | Weak activity | Weak activity | Weak activity | Weak activity | –
16 | CCOC(=O)N1C2CCC1CC(O)(c1ccc(Cl)nc1)C2 (stereo unspecified) | – | Weak activity | Weak activity | Weak activity | Weak activity | Weak activity | –
17 | CN1C2CCC1CC(O)(c1ccc(Cl)cn1)C2 (stereo unspecified) | – | Weak activity | – | – | Weak activity | Weak activity | Activity [9]: Weak activity; Activity [13]: Weak activity
